Columns and labels:
[1] = Saturation concentration of genistein in acetone; assay type: physicochemical; settings: room temperature and atmospheric pressure
Experimental: As used herein, the concentration of genistein means the concentration of the genistein dissolved in an organic solvent such as acetone at room temperature and atmospheric pressure. The saturation point of genistein concentration dissolved in acetone at room temperature and atmospheric pressure is 4 mg/mL.

[2] = Dissolution rate study in a dissolution medium; assay type: physicochemical; settings: over a period of 20 minutes
Experimental: FIG. 9 is dissolution profiles of raw genistein versus PCA processed genistein under different pressures of 70 bar (Run 6) and 100 bar (Run 4).
46% weight percentage of the processed genistein from Run 4 (100 bar) is dissolved in a dissolution medium while only 23% of the unprocessed genistein is dissolved over a period of 20 minutes. This 2-fold increase in dissolution rate can be credited to the reduction in particle size resulting in an increase in total surface area. However, the dissolution rate for particles which are obtained at 70 bar with smaller particles (Run 6) is slower than that of particles obtained at 100 bar (Run 4).

saturation point of genistein concentration dissolved in acetone [1]: 4 mg/mL
weight percentage dissolved in a dissolution medium [2]: 23%
SMILES: O=c1c(-c2ccc(O)cc2)coc2cc(O)cc(O)c12 [unprocessed genistein, genistein]
